System: female NMRI mice
Assay: Anorectic effect: cumulative condensed milk consumption after oral administration
Type: in vivo
Settings: food withdrawn 24 hours, oral dose 50 mg/kg by gavage
Protocol: The anorectic effect was tested on female NMRI mice. After withdrawal of food for 24 hours, the test product was administered by gavage. The animals were housed singly with free access to drinking water and were offered condensed milk 30 minutes after administration of the product. The condensed milk consumption was determined every half hour for 7 hours, and the general wellbeing of the animals was observed. The measured milk consumption was compared with the vehicle-treated control animals.

`COc1ccc(Cl)cc1S(=O)(=O)N1CCC(=O)N2C(Cc3ccc(Cl)cc3)C(=O)N(C(C)C)CC21` (centres unmarked) [Example 2, 6-(4-Chlorobenzyl)-1-(5-chloro-2-methoxybenzenesulfonyl)-8-isopropylhexahydropyrazino[1,2-a]pyrimidine-4,7-dione] was tested, and the “Reduction in the cumulative milk consumption as % of the control” value (milk consumption over 7 hours) was 11 % of the control and the “cumulative milk consumption of the treated animals” value (over 7 hours, N=10, control animals 5.48 ml) was 10/4.90 ml.

From patent US7750005B2, “Substituted hexahydropyrazino [1,2-A] pyrimidine-4,7-dione derivatives, process for their preparation and their use as medicaments” (Sanofi-Aventis Deutschland GmbH, priority 2003, dated 2010)
